Results taken from BindingDB's records for patent US11814367 (Maze Therapeutics, 2023).

Experiments:
[1] = biological target: T1, Glycogen [starch] synthase, muscle (Homo sapiens, UniProt P13807); experiment: Kinetic Biochemical Assay
T1 sequence (P13807 whole entry): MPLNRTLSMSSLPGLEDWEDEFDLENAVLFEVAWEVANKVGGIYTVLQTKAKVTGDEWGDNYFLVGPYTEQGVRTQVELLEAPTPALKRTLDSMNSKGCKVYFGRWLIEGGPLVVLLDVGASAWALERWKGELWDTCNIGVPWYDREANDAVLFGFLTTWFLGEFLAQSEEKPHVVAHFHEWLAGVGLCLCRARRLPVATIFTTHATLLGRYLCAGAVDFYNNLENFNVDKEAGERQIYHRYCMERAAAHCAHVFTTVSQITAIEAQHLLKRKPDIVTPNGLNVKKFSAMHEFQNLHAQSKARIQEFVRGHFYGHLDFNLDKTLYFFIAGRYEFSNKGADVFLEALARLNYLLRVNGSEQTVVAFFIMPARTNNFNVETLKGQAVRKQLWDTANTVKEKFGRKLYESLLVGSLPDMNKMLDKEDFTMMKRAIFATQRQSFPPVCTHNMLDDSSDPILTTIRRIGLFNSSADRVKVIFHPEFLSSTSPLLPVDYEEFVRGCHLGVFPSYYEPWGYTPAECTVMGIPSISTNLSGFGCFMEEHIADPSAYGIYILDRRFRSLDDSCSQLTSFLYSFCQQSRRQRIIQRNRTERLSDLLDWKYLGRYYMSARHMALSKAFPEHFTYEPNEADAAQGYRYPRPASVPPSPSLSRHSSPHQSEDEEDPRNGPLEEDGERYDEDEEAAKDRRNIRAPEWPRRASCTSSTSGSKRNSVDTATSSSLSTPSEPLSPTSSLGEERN
Protocol: The Assay Buffer contained 50 mM Tris pH 7.5, 2 mM MgCl2, and 100 mM KCl. Fresh stocks of BSA at a final concentration of 0.02% and TCEP at 1 mM were added before splitting buffer into hGYS1 buffer and substrate buffer. To the hGYS1 buffer, rabbit liver glycogen was added at a final concentration of 0.2% glycogen. Glucose-6-Phosphate was added at 1 mM, recombinant hGYS1/GN1 protein was added at 50 nM to the substrate buffer, phosphoenolpyruvate (PEP) was added at 2 mM, UDP-Glucose was added at 0.8 mM, NADH) was added at 0.6 mM, and Pyruvate Kinase/Lactate Dehydrogenase was added at 20 units/mL. The reaction was initiated by mixing hGYS1 buffer and substrate buffer at a 1:1 ratio. Both buffers were plated using a liquid dispensing device with hGYS1 buffer plated first followed by the substrate buffer. Plates were spun briefly to eliminate air bubbles and are immediately read in continuous mode at an absorbance of 340 nm, for 10 time points in one-minute increments, for a total of 10 minutes. The slope from these 10 time points was normalized to the positive and negative control wells.

[2] = biological target: T2, Glycogen [starch] synthase, liver (Homo sapiens, UniProt P54840); experiment: The GYS2 coupled enzyme assay
T2 sequence (P54840 whole entry): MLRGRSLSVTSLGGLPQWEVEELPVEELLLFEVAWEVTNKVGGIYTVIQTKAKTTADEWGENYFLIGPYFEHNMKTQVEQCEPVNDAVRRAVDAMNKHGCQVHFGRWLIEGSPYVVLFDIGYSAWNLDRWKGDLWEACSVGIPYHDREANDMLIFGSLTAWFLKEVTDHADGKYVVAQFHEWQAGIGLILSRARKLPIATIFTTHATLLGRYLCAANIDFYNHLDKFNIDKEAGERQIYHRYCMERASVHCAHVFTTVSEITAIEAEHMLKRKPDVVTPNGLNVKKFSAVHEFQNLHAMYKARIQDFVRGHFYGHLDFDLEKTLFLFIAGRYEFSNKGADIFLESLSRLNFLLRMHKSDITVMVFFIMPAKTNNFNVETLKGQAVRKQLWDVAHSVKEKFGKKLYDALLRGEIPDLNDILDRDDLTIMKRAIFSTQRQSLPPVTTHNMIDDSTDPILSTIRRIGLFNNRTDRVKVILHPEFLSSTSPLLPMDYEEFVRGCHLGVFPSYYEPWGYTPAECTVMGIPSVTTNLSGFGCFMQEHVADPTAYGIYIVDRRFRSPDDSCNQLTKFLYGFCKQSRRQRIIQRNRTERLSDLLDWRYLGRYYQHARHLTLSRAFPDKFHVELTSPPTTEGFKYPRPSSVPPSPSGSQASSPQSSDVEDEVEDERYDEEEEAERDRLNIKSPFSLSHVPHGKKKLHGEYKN
Protocol: Compounds that inhibit the hGYS2 enzyme and, subsequently, the downstream conversion of NADH to NAD+, were tested using assay ready plates (black, clear bottom 384 well plates) in a final DMSO reaction volume of 2.5% DMSO. The Assay Buffer contained 50 mM Tris pH 7.5, 2 mM MgCl2, and 100 mM KCl. Fresh stocks of BSA at a final concentration of 0.02% and TCEP 1 mM were added before splitting buffer into hGYS2 buffer and substrate buffer. To the hGYS2 buffer, rabbit liver glycogen was added at a final concentration of 0.2% glycogen. Glucose-6-Phosphate was added at 2 mM, recombinant hGYS2/GN1 protein was added at 200 nM to the substrate buffer, phosphoenolpyruvate (PEP) was added at 2 mM, UDP-Glucose was added at 2 mM, NADH was added at 0.6 mM, and Pyruvate Kinase/Lactate Dehydrogenase was added at 20 units/mL. The reaction was initiated by mixing hGYS2 buffer and substrate buffer at a 1:1 ratio. Both buffers were plated using a liquid dispensing device with hGYS2 buffer plated first followed by the substrate buffer. Plates were spun briefly to eliminate air bubbles and are immediately read in continuous mode at an absorbance of 340 nm, for 10 time points in one-minute increments, for a total of 10 minutes. The slope from these 10 time points was normalized to the positive and negative control wells. The duplicate % inhibition values are then averaged and fit to a Hill equation for dose response according to the Levenberg-Marquardt algorithm with the Hill equation maximum set to 100 and the minimum set to 0.The results are shown in Table 4 below

Structure (SMILES)	IC50 [1] [µM]	IC50 [2] [µM]
CC(=O)N1C[C@H](F)C[C@H]1C(=O)NC(c1ccc(C(C)C)cc1)c1ccccc1N (single isomer, unassigned) [US11814367, Compound 642]	1.33	> 100
CC(=O)N1C[C@H](F)C[C@H]1C(=O)NC(c1ccccc1)c1ccc(C2CCC2)c(F)c1 (single isomer, unassigned) [US11814367, Compound 660]	0.309	> 100
CC(=O)N1Cc2nccnc2CC1C(=O)N1C[C@H](F)C[C@H]1C(=O)N[C@@H](c1ccccc1)c1ccc(C(C)C)cc1 (some centres not stated) [US11814367, Compound 167]	0.116	> 100
CC(C)c1ccc([C@@H](NC(=O)[C@@H]2C[C@@H](F)CN2C(=O)CC2COC2)c2ccccc2)cc1 [US11814367, Compound 218]	0.293	> 100
CC(C)c1ccc([C@@H](NC(=O)[C@@H]2C[C@@H](F)CN2C(=O)COC(=O)N(C)C)c2ccccc2)nc1 [US11814367, Compound 251]	0.053	> 100
NC(=O)NCC(=O)N1C[C@H](F)C[C@H]1C(=O)N[C@@H](c1ccccc1)c1ccc(C2CC2)c(F)n1 [US11814367, Compound 302]	0.067	> 100
O=C(N[C@@H](c1ccccc1)c1ccc(C2CC2)c(F)n1)[C@@H]1C[C@@H](F)CN1C(=O)CNC(=O)N1CCC1 [US11814367, Compound 305]	0.024	
CC(C)c1ccc([C@@H](NC(=O)[C@@H]2C[C@@H](F)CN2C(=O)CNC(=O)N(C)C)c2ccccc2)cc1F [US11814367, Compound 361]	0.01	> 100
CC(C)c1ccc([C@@H](NC(=O)[C@@H]2C[C@@H](F)CN2C(=O)c2ccc3c(cnn3C)c2)c2ccccc2)cc1 [US11814367, Compound 702]	1.26	
O=C(N[C@H](c1ccccc1)c1ccc(C2CC2)c(F)n1)[C@@H]1C[C@@H](F)CN1C(=O)Cn1cnc2ccccc21 [US11814367, Compound 716]	2.16	
CC(C)c1ccc([C@@H](NC(=O)[C@@H]2C[C@@H](F)CN2C(=O)Cc2nc(C(F)(F)F)co2)c2ccccc2)nc1F [US11814367, Compound 801]	0.024	

Further lines, results first:

IC50 [1] [µM]	IC50 [2] [µM]	Structure (SMILES)
0.043		CC(=O)N1C[C@H](F)C[C@H]1C(=O)NC(c1ccc2cn[nH]c2c1)c1ccc(C(C)C)c(F)n1 (single isomer, unassigned) [US11814367, Compound 634]
0.082		CC(=O)N1C[C@H](F)C[C@H]1C(=O)NC(c1ccc2cnn(C)c2c1)c1ccc(C(C)C)c(F)n1 (single isomer, unassigned) [US11814367, Compound 635]
0.071		CC(=O)N1C[C@H](F)C[C@H]1C(=O)NC(c1ccc2cn(C)nc2c1)c1ccc(C(C)C)c(F)n1 (single isomer, unassigned) [US11814367, Compound 636]
0.453		CC(=O)N1C[C@H](F)C[C@H]1C(=O)NC(c1ccc2cn[nH]c2c1)c1ccc(C2CC2)c(F)n1 (single isomer, unassigned) [US11814367, Compound 637]
0.252		COc1cccc(C(NC(=O)[C@@H]2C[C@@H](F)CN2C(C)=O)c2ccc(C(C)C)c(F)n2)c1 (single isomer, unassigned) [US11814367, Compound 654]
1.78		CC(=O)N1C[C@H](F)C[C@H]1C(=O)NC(c1cccc(-c2cc(C)nn2C)c1)c1ccc(C(C)C)c(F)n1 (single isomer, unassigned) [US11814367, Compound 697]
0.007	> 100	CC(C)c1ccc([C@@H](NC(=O)[C@@H]2C[C@@H](F)CN2C(=O)Cn2cc(N3CCC3)nn2)c2ccccc2)nc1F [US11814367, Compound 787]
0.009		COc1nc(CC(=O)N2C[C@H](F)C[C@H]2C(=O)N[C@@H](c2ccccc2)c2ccc(C(C)C)c(F)n2)nn1C [US11814367, Compound 800]
